The source of these data is ChEMBL document CHEMBL1938249, “Synthesis, antimalarial activity, and structure-activity relationship of 7-(2-phenoxyethoxy)-4(1H)-quinolones” (J Med Chem, 2011).

Structures are written as SMILES.

The test system of the first data set is Plasmodium falciparum. Briefly: Antimalarial activity against chloroquine-, pyrimethamine-resistant ring stage Plasmodium falciparum W2 infected in human A positive erythrocytes after 72 hrs by SYBR green 1-based fluorescence assay. The data set is classed as functional, organism-based. The following applies: W2, 72 h.
Take `CCCCc1cc2c(=O)c(-c3ccc(Oc4ccc(OC(F)(F)F)cc4)cc3C)c(C)[nH]c2cc1OCCOc1ccccc1`: the EC50 – broadly, the concentration at which the effect is half-maximal – came out at 58.5 nM.

Compound `CCc1c(C)[nH]c2cc(OCCOc3ccccc3)c(Cl)cc2c1=O` registered an EC50 of 256 nM.

As for `CCc1c(C)[nH]c2cc(OCOC)c(Cl)cc2c1=O`, the EC50 worked out at 908 nM.

`CCCCc1cc2c(=O)c(-c3ccc(OC(F)(F)F)cc3)c(C)[nH]c2cc1OCCOc1ccccc1` displayed an EC50 of 3220 nM.

Take `CCCCc1cc2c(=O)c(-c3ccc(C)cc3C)c(C)[nH]c2cc1OCCOc1ccccc1`: the EC50 is 907 nM.

In turn, `CCc1c(C)[nH]c2cc(OCCOc3ccccc3)c(Br)cc2c1=O` displayed an EC50 of 203 nM.

In turn, `CCCCc1cc2c(=O)c(-c3ccc(C(F)(F)F)cc3)c(C)[nH]c2cc1OCCOc1ccccc1` had an EC50 of 509 nM.

Regarding `CCc1c(C)[nH]c2cc(OCCN(C)C)c(Cl)cc2c1=O`, a half-maximal effect (EC50) was put at 5050 nM.

`CCCCc1cc2c(=O)c(-c3cccnc3)c(C)[nH]c2cc1OCCOc1ccccc1`: a half-maximal response (EC50) required 1350 nM.

Compound `CCCCc1cc2c(=O)cc(C)[nH]c2cc1OCCOc1ccccc1` displayed an EC50 of 216 nM.

`CCCCc1cc2c(=O)c(C(=O)OC)c[nH]c2cc1OCCOc1ccccc1`: it took 0.05 nM to reach a half-maximal effect (EC50).

With `CCc1c(C)[nH]c2cc(OCCCOC(=O)C(CC)C(C)=O)c(Cl)cc2c1=O` (configuration not stated), it took 6130 nM to reach a half-maximal effect (EC50).

For the compound `CCCCc1cc2c(=O)c(CC)c(C)[nH]c2cc1OCCOc1ccccc1`, a half-maximal response (EC50) required 1.92 nM.

Regarding `CCc1c(C)[nH]c2cc(OCCN3CCOCC3)c(Cl)cc2c1=O`, the EC50 was 5090 nM.

A further data set has as its system Plasmodium falciparum. The data set is described as follows: Antimalarial activity against chloroquine-, mefloquine-, pyrimethamine-,atovaquone-resistant ring stage Plasmodium falciparum TM90-C2B infected in human A positive erythrocytes after 72 hrs by SYBR green 1-based fluorescence assay. The data set is classed as functional, organism-based.
Conditions: not given
As for `O=C1C(O)=C([C@H]2CC[C@H](c3ccc(Cl)cc3)CC2)C(=O)c2ccccc21` [ATOVAQUONE], the EC50 was above 170 nM.

`CCCCc1cc2c(=O)c(-c3ccc(Oc4ccc(OC(F)(F)F)cc4)cc3C)c(C)[nH]c2cc1OCCOc1ccccc1` gave an EC50 of 475 nM.

Compound `CCc1c(C)[nH]c2cc(OCCOc3ccccc3)c(Cl)cc2c1=O` gave an EC50 of 72.1 nM.

Regarding `CCc1c(C)[nH]c2cc(OCOC)c(Cl)cc2c1=O`, a half-maximal response (EC50) required 79.7 nM.

The compound `CCCCc1cc2c(=O)c(-c3ccc(OC(F)(F)F)cc3)c(C)[nH]c2cc1OCCOc1ccccc1` came in with an EC50 of 2510 nM.

Compound `CCCCc1cc2c(=O)c(-c3ccc(C)cc3C)c(C)[nH]c2cc1OCCOc1ccccc1` showed an EC50 of 1630 nM.

As for `CCc1c(C)[nH]c2cc(OCCOc3ccccc3)c(Br)cc2c1=O`, the EC50 was determined as 43.5 nM.

Regarding `CCCCc1cc2c(=O)c(-c3ccc(C(F)(F)F)cc3)c(C)[nH]c2cc1OCCOc1ccccc1`, the EC50 came to 2450 nM.

Regarding `CCc1c(C)[nH]c2cc(OCCN(C)C)c(Cl)cc2c1=O`, the EC50 came out at 604 nM.

Compound `CCCCc1cc2c(=O)c(-c3cccnc3)c(C)[nH]c2cc1OCCOc1ccccc1` showed an EC50 of 588 nM.

As for `CCCCc1cc2c(=O)cc(C)[nH]c2cc1OCCOc1ccccc1`, the EC50 was found to be 44.1 nM.

For `CCCCc1cc2c(=O)c(C(=O)OC)c[nH]c2cc1OCCOc1ccccc1`, the response was half-maximal at 11.2 nM (EC50).

`CCc1c(C)[nH]c2cc(OCCCOC(=O)C(CC)C(C)=O)c(Cl)cc2c1=O` (configuration not stated): the half-maximal effective concentration (EC50) came to 6130 nM.

Take `CCCCc1cc2c(=O)c(CC)c(C)[nH]c2cc1OCCOc1ccccc1`: the EC50 amounted to 0.15 nM.

As to `CCc1c(C)[nH]c2cc(OCCN3CCOCC3)c(Cl)cc2c1=O`, the EC50 turned out to be 726 nM.

Another data set relates to Plasmodium falciparum. The data set is described as follows: Resistance ratio, ratio of EC50 for chloroquine-, mefloquine, pyrimethamine-,atovaquone-resistant ring stage Plasmodium falciparum TM90-C2B to EC50 for chloroquine-, pyrimethamine-resistant Plasmodium falciparum W2. It is filed as functional.
Conditions: not given
With `CCCCc1cc2c(=O)c(-c3ccc(Oc4ccc(OC(F)(F)F)cc4)cc3C)c(C)[nH]c2cc1OCCOc1ccccc1`, the “Ratio EC50” value came out at 8.12.

For `CCc1c(C)[nH]c2cc(OCCOc3ccccc3)c(Cl)cc2c1=O`, the “Ratio EC50” value is 0.28.

Regarding `CCc1c(C)[nH]c2cc(OCOC)c(Cl)cc2c1=O`, the “Ratio EC50” value worked out at 0.09.

Take `CCCCc1cc2c(=O)c(-c3ccc(OC(F)(F)F)cc3)c(C)[nH]c2cc1OCCOc1ccccc1`: the “Ratio EC50” value worked out at 0.78.

`CCCCc1cc2c(=O)c(-c3ccc(C)cc3C)c(C)[nH]c2cc1OCCOc1ccccc1`: the “Ratio EC50” value stood at 1.79.

For the compound `CCc1c(C)[nH]c2cc(OCCOc3ccccc3)c(Br)cc2c1=O`, the “Ratio EC50” value worked out at 0.21.

Take `CCCCc1cc2c(=O)c(-c3ccc(C(F)(F)F)cc3)c(C)[nH]c2cc1OCCOc1ccccc1`: the “Ratio EC50” value came to 4.82.

Turning to `CCc1c(C)[nH]c2cc(OCCN(C)C)c(Cl)cc2c1=O`, the “Ratio EC50” value is given as 0.12.

Take `CCCCc1cc2c(=O)c(-c3cccnc3)c(C)[nH]c2cc1OCCOc1ccccc1`: the “Ratio EC50” value is 0.44.

As for `CCCCc1cc2c(=O)cc(C)[nH]c2cc1OCCOc1ccccc1`, the “Ratio EC50” value was found to be 0.2.

For the compound `CCCCc1cc2c(=O)c(C(=O)OC)c[nH]c2cc1OCCOc1ccccc1`, the “Ratio EC50” value is 223.

For the compound `CCc1c(C)[nH]c2cc(OCCCOC(=O)C(CC)C(C)=O)c(Cl)cc2c1=O` (configuration not stated), the “Ratio EC50” value amounted to 1.

Consider `CCCCc1cc2c(=O)c(CC)c(C)[nH]c2cc1OCCOc1ccccc1`, for which the “Ratio EC50” value is 0.08.

For `CCc1c(C)[nH]c2cc(OCCN3CCOCC3)c(Cl)cc2c1=O`, the “Ratio EC50” value amounted to 0.14.

A further data set deals with J774. The data set is described as follows: Antiproliferative against mouse J774 cells after 72 hrs by Cell titer assay. The following applies: J774, 72 h. The data set is classed as cell-based.
In the case of `CCCCc1cc2c(=O)c(-c3ccc(Oc4ccc(OC(F)(F)F)cc4)cc3C)c(C)[nH]c2cc1OCCOc1ccccc1`, the EC50 is 16000 nM.

In turn, `CCc1c(C)[nH]c2cc(OCCOc3ccccc3)c(Cl)cc2c1=O` displayed an EC50 above 28000 nM.

With `CCc1c(C)[nH]c2cc(OCOC)c(Cl)cc2c1=O`, a half-maximal effect (EC50) was put at 19000 nM.

For the compound `CCCCc1cc2c(=O)c(-c3ccc(OC(F)(F)F)cc3)c(C)[nH]c2cc1OCCOc1ccccc1`, the EC50 amounted to 20000 nM.

Regarding `CCCCc1cc2c(=O)c(-c3ccc(C)cc3C)c(C)[nH]c2cc1OCCOc1ccccc1`, the EC50 came to 22000 nM.

`CCc1c(C)[nH]c2cc(OCCOc3ccccc3)c(Br)cc2c1=O` had an EC50 above 25000 nM.

Take `CCCCc1cc2c(=O)c(-c3ccc(C(F)(F)F)cc3)c(C)[nH]c2cc1OCCOc1ccccc1`: the EC50 amounted to 20000 nM.

`CCCCc1cc2c(=O)c(-c3cccnc3)c(C)[nH]c2cc1OCCOc1ccccc1`: the EC50 was determined as 23000 nM.

Consider `CCCCc1cc2c(=O)cc(C)[nH]c2cc1OCCOc1ccccc1`, for which the half-maximal effective concentration (EC50) came out at 28000 nM.

Take `CCCCc1cc2c(=O)c(C(=O)OC)c[nH]c2cc1OCCOc1ccccc1`: the EC50 is 46000 nM.

In the case of `CCCCc1cc2c(=O)c(CC)c(C)[nH]c2cc1OCCOc1ccccc1`, the response was half-maximal at 1000 nM (EC50).

The subject of the next data set is J774. Briefly: Antiproliferative against mouse J774 cells at < 20 uM after 72 hrs by Cell titer assay. It is filed as cell-based. The following applies: j774, 72 h.
In the case of `CCCCc1cc2c(=O)c(-c3ccc(Oc4ccc(OC(F)(F)F)cc4)cc3C)c(C)[nH]c2cc1OCCOc1ccccc1`, the Activity result is “Non-toxic”.

For `CCc1c(C)[nH]c2cc(OCCOc3ccccc3)c(Cl)cc2c1=O`, the Activity result is reported as “Non-toxic”.

`CCc1c(C)[nH]c2cc(OCOC)c(Cl)cc2c1=O`: the Activity entry is reported as “Non-toxic”.

In the case of `CCCCc1cc2c(=O)c(-c3ccc(OC(F)(F)F)cc3)c(C)[nH]c2cc1OCCOc1ccccc1`, the Activity entry is “Non-toxic”.

Consider `CCCCc1cc2c(=O)c(-c3ccc(C)cc3C)c(C)[nH]c2cc1OCCOc1ccccc1`, for which the Activity entry was “Non-toxic”.

For the compound `CCc1c(C)[nH]c2cc(OCCOc3ccccc3)c(Br)cc2c1=O`, the Activity result is “Non-toxic”.

As for `CCCCc1cc2c(=O)c(-c3ccc(C(F)(F)F)cc3)c(C)[nH]c2cc1OCCOc1ccccc1`, the Activity result is “Non-toxic”.

For the compound `CCc1c(C)[nH]c2cc(OCCN(C)C)c(Cl)cc2c1=O`, the Activity entry is “Non-toxic”.

As to `CCCCc1cc2c(=O)c(-c3cccnc3)c(C)[nH]c2cc1OCCOc1ccccc1`, the Activity result is recorded as “Non-toxic”.

For `CCCCc1cc2c(=O)cc(C)[nH]c2cc1OCCOc1ccccc1`, the Activity result is listed as “Non-toxic”.

With `CCCCc1cc2c(=O)c(C(=O)OC)c[nH]c2cc1OCCOc1ccccc1`, the Activity result is “Non-toxic”.

For `CCc1c(C)[nH]c2cc(OCCCOC(=O)C(CC)C(C)=O)c(Cl)cc2c1=O` (configuration not stated), the Activity entry is on record as “Non-toxic”.

Regarding `CCCCc1cc2c(=O)c(CC)c(C)[nH]c2cc1OCCOc1ccccc1`, the Activity result is recorded as “Non-toxic”.

Take `CCc1c(C)[nH]c2cc(OCCN3CCOCC3)c(Cl)cc2c1=O`: the Activity result was “Non-toxic”.

Test system in another data set: not listed separately
Briefly: Cytotoxicity index, ratio of EC50 for mouse J774 cells to EC50 for chloroquine-, mefloquine, pyrimethamine-,atovaquone-resistant ring stage Plasmodium falciparum TM90-C2B. It is filed as cell-based. The note with it: read-out: Ratio EC50.
Regarding `CCCCc1cc2c(=O)c(-c3ccc(Oc4ccc(OC(F)(F)F)cc4)cc3C)c(C)[nH]c2cc1OCCOc1ccccc1`, the selectivity ratio was at least 100.

For `CCc1c(C)[nH]c2cc(OCCOc3ccccc3)c(Cl)cc2c1=O`, the selectivity ratio is at least 100.

With `CCc1c(C)[nH]c2cc(OCOC)c(Cl)cc2c1=O`, the selectivity ratio was at least 100.

Turning to `CCCCc1cc2c(=O)c(-c3ccc(OC(F)(F)F)cc3)c(C)[nH]c2cc1OCCOc1ccccc1`, the selectivity ratio is at least 100.

For `CCCCc1cc2c(=O)c(-c3ccc(C)cc3C)c(C)[nH]c2cc1OCCOc1ccccc1`, the selectivity ratio was at least 100.

As for `CCc1c(C)[nH]c2cc(OCCOc3ccccc3)c(Br)cc2c1=O`, the selectivity ratio was at least 100.

Take `CCCCc1cc2c(=O)c(-c3ccc(C(F)(F)F)cc3)c(C)[nH]c2cc1OCCOc1ccccc1`: the selectivity ratio is at least 100.

As for `CCc1c(C)[nH]c2cc(OCCN(C)C)c(Cl)cc2c1=O`, the selectivity ratio is at least 100.

On to `CCCCc1cc2c(=O)c(-c3cccnc3)c(C)[nH]c2cc1OCCOc1ccccc1`, for which the selectivity ratio was at least 100.

Turning to `CCCCc1cc2c(=O)cc(C)[nH]c2cc1OCCOc1ccccc1`, the selectivity ratio was at least 100.

Regarding `CCCCc1cc2c(=O)c(C(=O)OC)c[nH]c2cc1OCCOc1ccccc1`, the selectivity ratio is at least 100.

For the compound `CCc1c(C)[nH]c2cc(OCCCOC(=O)C(CC)C(C)=O)c(Cl)cc2c1=O` (configuration not stated), the selectivity ratio was at least 100.

Regarding `CCCCc1cc2c(=O)c(CC)c(C)[nH]c2cc1OCCOc1ccccc1`, the selectivity ratio was at least 100.

For the compound `CCc1c(C)[nH]c2cc(OCCN3CCOCC3)c(Cl)cc2c1=O`, the selectivity ratio is at least 100.
